Measured values as given in article PMC12040169 (PLOS Biology, 2025).

test: in vitro; details: human, hela cells, % viability

Compound | viability at 28.5 h, 10 µM [%]
COCCCn1c(CCC(=O)O)ccc1-c1ccc(Br)cc1 [CBK268015] | 97.6
O=C(O)CCCCC/N=C1\CCc2ccccc2N1 [CBK286773] | 100
Cc1cccnc1NC(=O)C(C)Oc1ccccc1 (stereo not shown) [CBK268643] | 90.2
COCC1CN(C(=O)Nc2ncc(Cc3ccc(C)c(Cl)c3)s2)CCO1 (stereo not shown) [CBK306286] | 84
O=[N+]([O-])c1cc(C(F)(F)F)ccc1NC(CO)(CO)CO [CBK261838] | 88.4
CC(=O)N1CCCC1C(=O)N1CC(C(=O)Nc2nc3c(C)cc(C)cc3s2)C1 (stereo not shown) [CBK286039] | 86
O=C(O)c1ccc(CCN2CCCC2)nc1 [CBK034220] | 107
OC(c1cccs1)C1CCN(Cc2cnn(-c3ccccc3)c2)CC1 (stereo not shown) [CBK307290] | 105
CNC(=O)C1(Cc2ccc(-c3ccccc3)cc2)CCN(C(=O)CC2CCCCC2)CC1 [CBK285763] | 112
CCc1csc(C(=Cc2cccs2)C(N)=O)n1 [CBK001007] | 90.2
CC1=NN(C(=O)c2ccc(Cl)cc2)C(C)(C)C1 [CBK058904] | 111
CN(C)C(CC(=O)Nc1cccc(Cl)c1Cl)C(=O)O (stereo not shown) [CBK266952] | 107
O=C(c1cncnc1)N1CCC2(CCN(C(=O)c3ccoc3)C2)C1 (stereo not shown) [CBK131755] | 86.2
CN1CCN(C(=O)c2cc(C(C)(C)C)nn2Cc2ccc(Cl)cc2Cl)CC1 [CBK107285] | 109
CC(C)n1c(CN2CCOCC2)nc2c1c(=O)n(C)c(=O)n2C [CBK306201] | 83.7
COc1ccc(S(=O)(=O)Nc2ccccc2C(=O)Nc2ccc(F)cc2)cc1OC [CBK045404] | 91.2
Cc1nn(C)c(C)c1CN(C(=O)c1ccc(C)n(C)c1=O)C1CC1 [CBK281450] | 105
N#Cc1ccc(-c2cncc(NC3CCC(O)CC3)n2)cc1 (stereo not shown) [CBK166007T] | 88.2
CN1C(=O)COc2ccccc2CCCC[C@@H]2[C@H]1CCCN2C(=O)CCCn1cncn1 [CBK292182] | 95.3
CCOc1cccc2sc(NC(=O)CC)nc12 [CBK287307] | 86.5
CC(=O)Nc1ccccc1OCc1cc(-c2ccccc2)on1 [CBK296617] | 99.8
CCN1CCc2cc(CN3CCCC(Cn4ccnc4C)C3)ccc21 (stereo not shown) [CBK281965] | 96.9
O=C(O)CNS(=O)(=O)c1cc(Cl)sc1Cl [CBK034452] | 91.4

Compound | viability at 28.5 h, 10 µM [%]
Cc1nc2c(c(=O)[nH]1)CN(Cc1cc(F)ccc1F)CC2 [CBK283953] | 86.9
O=C(c1cccnc1)N1CCN(CC2(c3ccccc3)CC2)CC1 [CBK282906] | 94.5
CC(C)n1cc(C(=O)N2CCC(c3cc4ncccc4[nH]3)CC2)cn1 [CBK283392] | 95.6
CCOc1ccc(NC(=O)CSc2nc3nc(C)cc(C)n3n2)cc1 [CBK268278] | 107
Cc1nc2cc(C(=O)N(C)CCN3CCCCC3)ccc2n1C [CBK281854] | 78.3
CCN1CCCC1CNS(=O)(=O)c1cc(C(N)=O)ccc1OC (stereo not shown) [CBK267815] | 115
CCOc1ccc(C(C)(CC(=O)O)C(=O)O)cc1 (stereo not shown) [CBK261361] | 102
NCCc1nc2ccccc2[nH]1 [CBK278287C] | 91.8
O=C(O)c1cc(NC(=O)C2CCCCC2)cc(C(=O)O)c1 [CBK286972] | 103
CCC(CC)c1cc([C@H]2CN3CC[C@H]2C[C@@H]3CO)nc(-c2ccncc2)n1 [CBK289118] | 100
N#Cc1c(NC(=O)CN2CCCCC2)sc2c1CCCC2 [CBK261619] | 89.6
O=C(C1CCOCC1)N1CCCC[C@H]2CN(Cc3ccccc3)C[C@H]21 [CBK284839] | 86.9
COc1ccc(Nc2cc(-c3ccco3)ncn2)c(OC)c1 [CBK090761] | 105
O=C(NCCNc1cnccn1)c1cccc(Cl)c1Cl [CBK305727] | 84.9
O=c1ccc2c(-c3cccc(C(F)(F)F)c3)ccnc2[nH]1 [CBK073733] | 90.5
O=C(Nc1ccccc1)[C@H]1CN2CCC1C[C@@H]2Cn1cc(C2(O)CCCC2)nn1 (stereo partly shown) [CBK289091] | 103
O=C(O)Cc1sc(Nc2ccccc2)nc1-c1ccccc1 [CBK286775] | 97.2
O=C(c1cncnc1)N1Cc2ccccc2C1 [CBK200223] | 106
O=C1c2ccccc2CN1c1ccccc1 [CBK113189] | 95.9
COc1cccc(CN2C(=O)CC3(C2=O)C(=O)N(Cc2ccc4ccccc4n2)c2ccccc23)c1 (stereo not shown) [CBK076016] | 96.2
FC(F)(F)c1ccnc(Sc2nc[nH]n2)n1 [CBK093806] | 93.1
CC(C)(C)OC(=O)N1CCC(CNCc2cc(F)cc(F)c2)CC1 [CBK056715] | 119
N#CC1=C(SCc2ccccc2)SC(c2ccc(O)c(O)c2)NC1=O (stereo not shown) [CBK293972] | 105

Compound | viability at 28.5 h, 10 µM [%]
CN1CC(=O)N(CC(=O)N2CC=C(c3ccccc3)CC2)c2ccccc2C1=O [CBK294433] | 88
C[C@H](NC(=O)OC(C)(C)C)C(=O)NC[C@H]1CC[C@H](C(=O)O)CC1 [CBK286741] | 98.7
CC(Oc1ccc(Br)cc1)C(=O)O/N=C(\N)c1ccncc1 (stereo not shown) [CBK266797] | 93
Cc1cc(NC(=O)c2cccc(Br)c2)nc2c1c(=O)oc1ccccc12 [CBK291238] | 94.3
c1cc(N2CCN(CCN3CCCC3)CC2)ncc1-c1ccc2c(c1)OCO2 [CBK037769] | 95.1
CS(=O)(=O)c1ccc(-c2ccc(OC3CCN(C(=O)CCCc4ccc(F)cc4)CC3)nc2)cc1 [CBK155044] | 94.8
CCN(CC)C(=O)CN1CCCN(c2cc(OCCN3C(=O)CCC3=O)ncn2)CC1 [CBK083266T] | 102
O=C(CN1CCCC1)Nc1sc2c(c1C(=O)NCc1ccccc1)CCCC2 [CBK268926] | 105
O=C(CSc1nnc(-c2ccncc2)n1-c1ccc(Cl)cc1)Nc1ccccc1-c1ccccc1 [CBK266205] | 104
CCc1nn(CC(=O)N2CCCC2)c(=O)c2cc3occc3n12 [CBK283748] | 93.3
Cn1nc(C2CCCC2)cc1[C@H]1CN2CC[C@H]1C[C@@H]2CNS(=O)(=O)c1ccccc1 [CBK288741] | 96.3
CCOc1ccccc1-c1nnc(SCC(=O)NC2CCCCC2)o1 [CBK268728] | 106
CN(C)c1ccc(CC(=O)Nc2cnc(-c3cccc(C(F)(F)F)c3)c(-c3cccnc3)n2)cc1 [CBK036901] | 98.2
O=C(Nc1cnc(-c2cccc(OC(F)(F)F)c2)c(-c2cccnc2)n1)c1ccccn1 [CBK036837] | 99.2
Cc1cc(NC(=O)Cc2cn3ccsc3n2)ccc1N1CCCC1 [CBK306080] | 79.8
CC(C)c1nn(C)c(N(C)C)c1CNCCc1cnn(C)c1 [CBK305135] | 108
CS(=O)(=O)c1ccc(CN2C(=O)CC3(CCN(Cc4ccccc4)CC3)C2=O)cc1 [CBK144065T] | 108
O=C(N[C@@H](Cc1ccccc1)C(=O)O)c1cccc2c1-c1ccccc1C2=O [CBK286710] | 92.1
O=C(CCN1CCCCC1)N1CCc2ccccc21 [CBK200413] | 91.1
O=C(CC1NCCNC1=O)Nc1ccc2c(c1)OCCO2 (stereo not shown) [CBK266837] | 99.3
O=C(COc1ccccc1)Nc1cnc(-c2ccc(F)cc2)c(-c2ccsc2)n1 [CBK036958] | 91.7
CC(C)Oc1ccc(C(F)(F)F)cc1N [CBK028895C] | 105
O=C(COc1ccccc1)Nc1ccc(N2CCOCC2)c2nonc12 [CBK268149] | 87.9

Compound | viability at 28.5 h, 10 µM [%]
CCOc1cc2c(cc1CN(Cc1ccc3c(c1)OCO3)CC(C)O)CCC2 (stereo not shown) [CBK286474] | 87.2
O=C(O)C(O)C(O)c1nc2ccccc2[nH]1 (stereo not shown) [CBK260955] | 107
Fc1ccc2[nH]c3c(c2c1)CCN1C(c2cccnc2)N2CCC31CC2 (stereo not shown) [CBK284436] | 87.6
Cc1ccc(S(=O)(=O)NC(C)(C)CSc2nnc(N)s2)cc1 [CBK266350] | 97.1
CCOC(=O)C1CC1CN1CCCN(S(=O)(=O)c2ccc(C(=O)c3ccccc3)cc2)CC1 (stereo not shown) [CBK063028] | 88.6
Cc1cccc(CCNC(=O)N2CCN(Cc3ccccn3)CC2)c1 [CBK304057] | 103
COc1cc(Nc2cccc(-c3ccsc3)n2)cc(OC)c1OC [CBK036987] | 97.9
O=C(O)c1cc(S(=O)(=O)NCCCN2CCOCC2)ccc1Cl [CBK299804] | 96.8
O=C(c1cnn(-c2cccc(Cl)c2)c1)N1CCOCC1CC(F)F (stereo not shown) [CBK304207] | 95.5
Cc1ccc(C)c(NC(=O)CN(Cc2ccc(Cl)c(Cl)c2)S(=O)(=O)c2ccccc2)c1 [CBK264191] | 107
O=C(NCc1cccc(C(F)(F)F)c1)N1CCN(CCN2CCOCC2)CC1 [CBK155671] | 98.9
Cc1cnn(CC2CCCN2C(=O)CC2OCCc3ccsc32)c1 (stereo not shown) [CBK305370] | 86.5
Cc1c(C(=O)O)sc2c1c(=O)n(Cc1ccccc1)c(=O)n2CCN(C)C [CBK286590] | 95.3
COc1ccc(-c2cc(C(=O)N[C@@H](C)c3ccccc3)cnc2-c2cccc(C)c2)cc1 [CBK036635] | 105
CN(C1CCCCC1)S(=O)(=O)c1cc(Cl)ccc1Cl [CBK261744] | 118
Cn1cc(Cl)c(C2CCCCCN2C(=O)c2cc(C3CC3)on2)n1 (stereo not shown) [CBK285120] | 109
Cc1nc2cc(OCc3nc(C(=O)NC4CCNC4=O)co3)ccc2s1 (stereo not shown) [CBK307298] | 91.8
Nc1ccc(-c2ncccc2O)cc1 [CBK262937C] | 106
CCC1(CC)C(=O)N=C(C(C)(C)C)NC1=O [CBK076759] | 88.8
O=C(Cc1ccccn1)N1CCN(Cc2ccccc2)CC1 [CBK200174] | 103
Cc1ccc(Nc2cncc(-c3ccc(O)cc3)n2)cc1Cl [CBK107802] | 99.9
ON=C1CCC(c2ccccc2)CC1 (stereo not shown) [CBK016102] | 113
